The source of these data is patent publication US20140350029A1 (DAINIPPON SUMITOMO PHARMA CO., LTD., priority 2011, published 2014).

The target in series [1] is T1, Dopamine D3 receptor (Homo sapiens, UniProt P35462).
T1 construct: expressed in transfected cells
Nature of the series: In vitro receptor binding, dopamine D3. Particulars: cloned cells expressing human receptors; read-out: Binding Affinities (Ki; nM) Dopamine D3.

Series [2] concerns the target Norepinephrine α1 receptor. Nature of the series: In vitro receptor binding, norepinephrine α1 (rat).
Series [3] has as its target Histamine H1 receptor (Cavia porcellus, UniProt P31389). Nature of the series: In vitro receptor binding, histamine H1 (guinea pig).
Series [4] deals with T2, serotonin 5-HT1A receptor (Homo sapiens, UniProt P08908).
T2 sequence (P08908 1-422): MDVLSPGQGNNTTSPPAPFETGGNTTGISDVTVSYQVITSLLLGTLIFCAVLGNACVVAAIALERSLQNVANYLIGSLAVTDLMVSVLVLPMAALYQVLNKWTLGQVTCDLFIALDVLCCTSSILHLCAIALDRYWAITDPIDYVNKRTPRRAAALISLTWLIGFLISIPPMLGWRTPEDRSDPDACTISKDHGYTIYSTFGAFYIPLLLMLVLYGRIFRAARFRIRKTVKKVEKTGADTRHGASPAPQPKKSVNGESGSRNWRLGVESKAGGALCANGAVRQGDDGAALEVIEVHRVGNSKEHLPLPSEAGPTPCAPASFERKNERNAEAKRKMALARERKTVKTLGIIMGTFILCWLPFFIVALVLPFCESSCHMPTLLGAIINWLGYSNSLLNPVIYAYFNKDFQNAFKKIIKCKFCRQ
Nature of the series: Functional assay, effect on receptor function. It is filed as biochemical. As for the experimental part:
In vitro binding studies were carried out according to the procedures well-established in the art. Membranes from male Wistar rat brain tissues or cells expressing cloned human receptors were prepared under assay conditions summarized in Ishibashi, T. et al. (Journal of Pharmacology and Experimental Therapeutics (2010)). Functional assays were carried out to analyze the binding affinity and effect on receptor function for dopamine D1-D4 receptor subtypes, serotonin 5-HT1A, 5-HT2A, 5-HT2C, 5-HT6, 5-HT7, norepinephrine α1, α2A, α2C, histamine H1 receptors, and muscarinic M1 receptors.

Series [5] in a line: Metabolic effects, 1-year lurasidone therapy. As to conditions: 40-120 mg/day, 1-year study, patients with schizophrenia. It is filed as in vivo, human. As for the experimental part: Changes in weight, total cholesterol, triglycerides, fasting glucose, and prolactin were measured and compared to baseline levels.
Series [6] concerns patients with schizophrenia. Nature of the series: PANSS and BPRS scores, 1-year lurasidone therapy. It is filed as in vivo, human. As to conditions: 40-120 mg/day, over a 1-year period.
For series [7], the system named is patients with bipolar I depression. Nature of the series: Lurasidone adjunctive to lithium or divalproex for bipolar I depression, 6-week study, efficacy. It is filed as in vivo, human. As to conditions: lurasidone 20-120 mg/day adjunctive to lithium or divalproex, 6 weeks. Here is the method: Changes from DB baseline (DB BL) in MADRS total score and secondary efficacy outcomes were analyzed using either mixed model for repeated measures (MMRM) or analysis of covariance, last observation carried forward (ANCOVA-LOCF), or logistic regression.
(§1) Therapeutic blood levels of Li or VPA had to be maintained for ≧28 days prior to randomization.
(§2) The total duration of treatment was 6 weeks.
A mixed model for repeated measures (MMRM) was utilized using the ITT population. The results are depicted in FIG. 16. The MMRM model included treatment, visit, pooled center, stratification variable (lithium or divalproex), baseline MADRS total score, and the treatment-by-visit interactions. An unstructured covariance matrix was used for the within-subject correlation. Missing observations were not imputed for this analysis.
Efficacy was also evaluated by measuring the change from baseline in CGI-BP-S score (depression) and the change from baseline in SDS total score. The results are depicted in FIGS. 17 and 18. CGI-BP-S was analyzed using the MMRM method described above, and SDS was analyzed using an analysis of covariance (ANCOVA) model with treatment, visit, pooled center, stratification variable (lithium or divalproex) and the baseline value of SDS. The ITT population was used for the analyses.

Series [8] in a line: Lurasidone adjunctive to lithium or divalproex for bipolar I depression, 6-week study, safety and tolerability. It is filed as in vivo, human. As to conditions: adjunctive to Li/VPA. Here is the method:
as §1, §2
Patients were required to continue treatment with lithium or divalproex during the screening period and throughout the study. Dose adjustments of lithium or divalproex were permitted during the trial to ensure that trough serum levels remained within the protocol-specified range (0.6 mEq/L to 1.2 mEq/L for lithium or […] to 125 μg/mL for divalproex).
This study also evaluated the safety and tolerability of using lurasidone in combination with lithium or divalproex. Patients were evaluated for: (1) Adverse effects, discontinuation due to adverse effects (AEs), and serious adverse effects (SAEs), (2) Movement disorders as assessed by Abnormal Involuntary Movement Scale (AIMS), Barnes Akathisia Rating Scale (BARS), and the Simpson-Angus Scale (SAS), and (3) Weight, laboratory measures, vital signs, and electrocardiograms (ECGs).

Series [9] concerns the target dopamine D2 receptor (Homo sapiens, UniProt P14416). Particulars: background statement; cited from earlier work.
The target in series [10] is 5-HT2A receptor (Homo sapiens, UniProt P28223). Particulars: background statement; cited from earlier work.
5-HT2A receptor, sequence (P28223 whole entry): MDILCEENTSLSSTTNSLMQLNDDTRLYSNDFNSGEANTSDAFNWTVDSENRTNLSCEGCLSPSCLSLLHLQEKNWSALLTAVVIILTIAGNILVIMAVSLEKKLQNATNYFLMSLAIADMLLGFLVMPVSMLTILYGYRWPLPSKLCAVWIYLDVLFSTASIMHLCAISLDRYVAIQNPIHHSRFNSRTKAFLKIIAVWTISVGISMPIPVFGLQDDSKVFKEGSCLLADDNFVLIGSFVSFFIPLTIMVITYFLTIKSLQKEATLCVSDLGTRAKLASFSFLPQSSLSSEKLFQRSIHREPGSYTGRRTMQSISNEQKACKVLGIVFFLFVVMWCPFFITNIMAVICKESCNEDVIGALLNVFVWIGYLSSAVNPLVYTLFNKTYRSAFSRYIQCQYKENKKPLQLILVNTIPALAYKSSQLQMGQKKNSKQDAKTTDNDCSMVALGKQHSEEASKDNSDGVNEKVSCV
Series [11] concerns the target 5-HT7 receptor (Homo sapiens, UniProt P34969). Particulars: background statement; cited from earlier work.
Series [12] has as its target histamine H1 receptor (Homo sapiens, UniProt P35367). As to conditions: background statement; cited from earlier work.
In series [13] the target is T3, muscarinic M1 receptor (Homo sapiens, UniProt P11229).
T3 sequence (P11229 1-460): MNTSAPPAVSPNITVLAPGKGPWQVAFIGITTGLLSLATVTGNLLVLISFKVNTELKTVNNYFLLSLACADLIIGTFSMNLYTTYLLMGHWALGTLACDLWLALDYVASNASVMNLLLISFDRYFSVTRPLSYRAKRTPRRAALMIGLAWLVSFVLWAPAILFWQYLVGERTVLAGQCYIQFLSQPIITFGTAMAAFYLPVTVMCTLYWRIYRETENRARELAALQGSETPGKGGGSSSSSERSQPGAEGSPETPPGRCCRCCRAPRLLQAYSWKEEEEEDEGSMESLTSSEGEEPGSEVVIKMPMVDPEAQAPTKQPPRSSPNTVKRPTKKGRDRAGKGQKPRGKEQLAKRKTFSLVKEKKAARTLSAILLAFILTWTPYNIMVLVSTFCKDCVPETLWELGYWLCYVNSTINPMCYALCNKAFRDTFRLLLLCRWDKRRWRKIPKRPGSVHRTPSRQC
As to conditions: background statement; cited from earlier work.

A value given as a limit tells only on which side of the number the result lay.

Histamine H1 receptor, sequence (P31389 whole entry): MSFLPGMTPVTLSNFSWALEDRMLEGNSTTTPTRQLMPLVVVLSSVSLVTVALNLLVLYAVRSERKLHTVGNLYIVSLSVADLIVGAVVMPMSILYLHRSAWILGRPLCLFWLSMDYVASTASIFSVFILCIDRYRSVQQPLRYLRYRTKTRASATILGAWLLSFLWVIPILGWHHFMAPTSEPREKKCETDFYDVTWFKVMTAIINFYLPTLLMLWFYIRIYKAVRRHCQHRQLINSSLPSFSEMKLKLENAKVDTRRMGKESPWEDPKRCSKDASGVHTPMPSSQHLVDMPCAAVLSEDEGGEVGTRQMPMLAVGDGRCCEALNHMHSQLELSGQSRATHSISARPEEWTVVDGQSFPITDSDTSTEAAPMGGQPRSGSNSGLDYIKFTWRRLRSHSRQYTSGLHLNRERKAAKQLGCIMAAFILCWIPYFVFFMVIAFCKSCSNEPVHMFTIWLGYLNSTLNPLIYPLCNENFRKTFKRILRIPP
T1 sequence (P35462 whole entry): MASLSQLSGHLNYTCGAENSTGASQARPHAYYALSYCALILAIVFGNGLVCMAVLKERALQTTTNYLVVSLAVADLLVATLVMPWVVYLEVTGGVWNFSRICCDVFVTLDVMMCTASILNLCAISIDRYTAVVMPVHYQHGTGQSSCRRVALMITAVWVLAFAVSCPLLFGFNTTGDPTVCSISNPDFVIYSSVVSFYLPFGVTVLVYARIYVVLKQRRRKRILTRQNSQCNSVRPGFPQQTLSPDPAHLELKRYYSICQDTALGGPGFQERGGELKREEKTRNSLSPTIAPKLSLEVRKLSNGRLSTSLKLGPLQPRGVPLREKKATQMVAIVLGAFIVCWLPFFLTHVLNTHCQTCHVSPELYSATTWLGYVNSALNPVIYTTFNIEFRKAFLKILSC
histamine H1 receptor, sequence (P35367 whole entry): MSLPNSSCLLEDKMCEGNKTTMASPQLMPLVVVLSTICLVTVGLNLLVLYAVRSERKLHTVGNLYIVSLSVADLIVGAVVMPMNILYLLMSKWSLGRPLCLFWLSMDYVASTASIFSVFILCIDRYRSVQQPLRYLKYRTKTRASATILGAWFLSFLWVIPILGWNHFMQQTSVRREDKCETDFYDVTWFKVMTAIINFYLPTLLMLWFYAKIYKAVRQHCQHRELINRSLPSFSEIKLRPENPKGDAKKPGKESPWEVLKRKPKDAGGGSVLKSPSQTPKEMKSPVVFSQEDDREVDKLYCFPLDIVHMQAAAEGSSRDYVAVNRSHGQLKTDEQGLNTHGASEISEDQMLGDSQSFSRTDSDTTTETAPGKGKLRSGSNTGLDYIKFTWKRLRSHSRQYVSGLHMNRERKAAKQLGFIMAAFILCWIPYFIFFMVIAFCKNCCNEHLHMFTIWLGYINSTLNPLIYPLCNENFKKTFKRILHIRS
dopamine D2 receptor, sequence (P14416 whole entry): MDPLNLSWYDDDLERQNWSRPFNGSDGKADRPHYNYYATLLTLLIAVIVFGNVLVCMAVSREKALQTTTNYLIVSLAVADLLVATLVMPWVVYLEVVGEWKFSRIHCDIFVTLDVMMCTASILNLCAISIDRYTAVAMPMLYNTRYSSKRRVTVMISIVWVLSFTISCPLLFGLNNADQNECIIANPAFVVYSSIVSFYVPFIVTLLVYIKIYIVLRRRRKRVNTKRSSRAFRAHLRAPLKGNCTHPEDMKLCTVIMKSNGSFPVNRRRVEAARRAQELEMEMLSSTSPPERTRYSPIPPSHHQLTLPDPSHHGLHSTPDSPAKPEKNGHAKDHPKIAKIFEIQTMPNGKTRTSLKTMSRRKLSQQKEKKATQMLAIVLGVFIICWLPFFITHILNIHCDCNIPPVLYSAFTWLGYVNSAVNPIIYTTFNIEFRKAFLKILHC
5-HT7 receptor, sequence (P34969 whole entry): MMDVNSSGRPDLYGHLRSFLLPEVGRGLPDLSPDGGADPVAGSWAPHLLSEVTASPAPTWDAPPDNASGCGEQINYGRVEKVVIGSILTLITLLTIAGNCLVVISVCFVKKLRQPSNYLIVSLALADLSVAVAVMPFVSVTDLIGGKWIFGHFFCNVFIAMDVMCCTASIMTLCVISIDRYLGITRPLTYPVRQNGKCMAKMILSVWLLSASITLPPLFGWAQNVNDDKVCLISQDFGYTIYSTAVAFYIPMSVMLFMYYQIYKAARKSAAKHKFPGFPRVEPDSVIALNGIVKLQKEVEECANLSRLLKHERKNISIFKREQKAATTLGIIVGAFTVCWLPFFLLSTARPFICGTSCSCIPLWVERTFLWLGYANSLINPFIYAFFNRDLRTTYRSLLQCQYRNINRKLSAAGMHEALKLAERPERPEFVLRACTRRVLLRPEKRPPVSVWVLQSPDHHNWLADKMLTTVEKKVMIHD

As for `O=C1[C@@H]2[C@H]3CC[C@H](C3)[C@@H]2C(=O)N1C[C@@H]1CCCC[C@H]1CN1CCN(c2nsc3ccccc23)CC1` [Lurasidone], the Ki in series [1] worked out at 15.7 nM. For the same compound, the Ki in series [2] (rat, read-out: Binding Affinities (Ki; nM) Norepinephrine α1) was found to be 47.9 nM. Besides, the “binding affinity for α1 adrenoreceptor (in words)” value in series [2] (summary of Table 2) is recorded as “low or negligible binding affinity”. The Ki in [3] (guinea pig, read-out: Binding Affinities (Ki; nM) Histamine H1) is > 1000 nM. The “binding affinity for histamine H1 receptor (in words)” value in series [3] (summary of Table 2) was “low or negligible binding affinity”. Also, the “effect on 5-HT1A receptor function” value in [4] was “partial agonist”. Further, the “changes in mean weight, lipids, and prolactin from baseline” value in series [5] was “no adverse changes”. In addition, in series [6], the “total PANSS and Brief Psychiatric Rating Scale (BPRS) scores” value is “gradual and sustained improvement”. For the same compound, in series [7], the “depressive symptoms compared to placebo” value is reported as “significantly reduced depressive symptoms”; the “self-rated measures of social, family, and occupational function as well as quality of life” value was “significantly improved”. Besides, in series [8], the “changes in weight, lipids, and measures of glucemic control” value was “Minimal changes”; the “discontinuation rates due to adverse events” value is 6%; the “most frequently reported adverse events” value is “nausea, headache, somnolence, and tremor”. Moreover, in [9], the “reported affinity for dopamine D2 receptor” value was “high affinity”. For the same compound, the “reported affinity for 5-HT2A receptor” value in [10] was “high affinity”. The “reported affinity for 5-HT7 receptor” value in series [11] was “high affinity”. For the same compound, the “reported affinity for histamine H1 receptor” value in series [12] is recorded as “minimal to no affinity”. Also, in series [13], the “reported affinity for muscarinic M1 receptor” value is recorded as “minimal to no affinity”.

The term Ki denotes the equilibrium dissociation constant of an inhibitor or competing ligand from its target.
